In this test the test system is STAT1 (phosphorylated at Tyr701) in NCI-H1373 cells. The experiment in a line: Phospho-STAT1 (Tyr701) LANCE Ultra TR-FRET detection assay in NCI-H1373 cells. It counts as cell-based. The settings on record: Homo sapiens, NCI-H1373, 48 h, 48 hours incubation, induction of pSTAT1, normalized to 10 uM positive control and DMSO, 4-parameter fit, read-out: NH1373 pSTAT1 EC50. The procedure:
Phospho-STAT1 (Tyr701 LANCE Ultra TR-FRET Detection Assay
LANCE Ultra phospho-STAT1 (Tyr701) kits are designed for the detection of phosphorylated STAT1 in cell lysates using a simple, homogeneous LANCE Ultra sandwich assay (Cat. #TRF4028M). This assay is intended for assessing compound induction of endogenous levels of cellular STAT1 (phosphorylated at Tyr701) in NCI-H1373 cells. The NCI-H1373 cells are cultured in RPMI 1640 media containing 10% heat inactivated FBS, GlutaMAX, 1% Penicillin-Streptomycin. An Echo acoustic liquid handler is used to transfer 60 nanoliters of compound dilutions using the Echo Qualified, 384-well polypropylene microplate clear flat bottom source plates into a Greiner (#781080) cell culture microplate. NCI-H1373 cells are seeded into these compound-spotted culture plates at 30,000 cells/well in a 60 uL volume in growth media. The plates are incubated in a 5% CO2 humidified incubator at 37° C. for 48 hours. […] Briefly, […] of supplemented lysis buffer is added to each well and allowed to shake for 1 hour at 400 rpm. Next, 5 ul of remixed antibody solutions (vol/vol) prepared in detection buffer are added to each well and allowed to incubate at room temperature overnight. After spinning the plate down at 300 rpm for 1 min, the plate is read on an EnVision plate reader set up for Eu^3+ Cryptate and fluorescence emission is measured at two different wavelengths (665 nm and 620 nm). The HTRF ratio is then calculated ([…]) for each well to determine the amount of pSTAT1 in the cell lysate, and the data is then normalized to 10 uM (S)-5-((1-(3-oxo-3-(4-(5-(trifluoromethyl)pyrimidin-2-yl)piperazin-1-yl)propoxy)propan-2-yl)amino)-4-(trifluoromethyl)pyridazin-3(2H)-one positive and DMSO negative controls. The values were then plotted as a function of compound concentration and a 4-parameter fit was applied to derive the EC50 values.
For orientation: Time-resolved FRET reads energy transfer from a long-lived donor to a nearby acceptor.
The term EC50 denotes the concentration at which the effect is half-maximal. In the case of `C[C@@H](C[C@H](F)Cn1cc(F)c2cc(-c3ncc(C(F)F)c(N)n3)c(F)cc2c1=O)Oc1cn[nH]c(=O)c1C(F)(F)F` [Example 64], the EC50 was determined as 0.42 nM. For `C[C@@H](C[C@@H](F)Cn1ccc2cc(-c3ncc(C(F)(F)F)cn3)c(F)c(F)c2c1=O)Oc1cn[nH]c(=O)c1C(F)(F)F` [Example 47], the EC50 worked out at 0.814 nM.

Turning to `C[C@@H](C[C@@H](F)Cn1cc(F)c2cc(-c3ncc(C(C)(C)O)cn3)c(F)cc2c1=O)Oc1cn[nH]c(=O)c1C(F)(F)F` (single isomer, unassigned) [Example 56], the EC50 is 1.51 nM. As to `C[C@@H](C[C@H](O)Cn1ccc2cc(-c3nc4ccccn4n3)c(F)cc2c1=O)Nc1cn[nH]c(=O)c1C(F)(F)F` (single isomer, unassigned) [Example 23], the EC50 is 7.18 nM. As to `COc1cnc(-c2cc3ncn(C[C@@H](F)C[C@H](C)Oc4cn[nH]c(=O)c4C(F)(F)F)c(=O)c3cc2F)nc1` [Example 67], the EC50 is 3.44 nM. Consider `C[C@@H](C[C@H](F)Cn1ccc2cc(-c3ncc(C(C)(C)O)cn3)c(F)cc2c1=O)Nc1cn[nH]c(=O)c1C(F)(F)F` (single isomer, unassigned) [Example 9], for which the EC50 stood at 238 nM. Consider `C[C@@H](C[C@@H](F)Cn1ccc2cc(-c3ncc(C(C)(O)C(F)(F)F)cn3)c(F)cc2c1=O)Nc1cn[nH]c(=O)c1C(F)(F)F` (stereo partly drawn) [Example 84], for which the EC50 was 2.79 nM. On to `C[C@@H](C[C@@H](F)Cn1cnc2cc(-c3ncc(C(F)(F)F)cn3)c(F)cc2c1=O)Oc1cn[nH]c(=O)c1C(F)(F)F` [Example 39], for which the EC50 is 1.49 nM. In the case of `COc1cnc(-c2cc3ccn(CC(F)CC(COC(F)F)Nc4cn[nH]c(=O)c4C(F)(F)F)c(=O)c3cc2F)nc1` (stereo not drawn) [Example 128], the EC50 stood at 3.08 nM. In the case of `C[C@@H](C[C@@H](F)Cn1ccc2cc(-c3ncc(C(F)F)c(N)n3)c(F)cc2c1=O)Oc1cn[nH]c(=O)c1C(F)(F)F` (single isomer, unassigned) [Example 14], the EC50 was 8.34 nM.

`C[C@@H](C[C@@H](F)Cn1ccc2cc(-c3ncc(C(F)F)c(N)n3)c(F)c(F)c2c1=O)Nc1cn[nH]c(=O)c1C(F)(F)F` [Example 101]: the EC50 turned out to be 4.36 nM. For the compound `C[C@@H](C[C@@H](F)Cn1ccc2cc(-c3ccccn3)c(F)cc2c1=O)Nc1cn[nH]c(=O)c1C(F)(F)F` [Example 74], the EC50 is 6.56 nM.

For the compound `C[C@@H](C[C@@H](F)Cn1cc(F)c2cc(-c3ncc(C(F)F)c(N)n3)c(F)cc2c1=O)Oc1cn[nH]c(=O)c1C(F)(F)F` [Example 54], the EC50 turned out to be 23.7 nM. For `C[C@@H](C[C@@H](F)Cn1cnc2cc(-c3ncc(C(F)F)cn3)c(F)cc2c1=O)Nc1cn[nH]c(=O)c1C(F)(F)F` [Example 70], the EC50 worked out at 3.31 nM. `C[C@@H](C[C@@H](F)Cn1ccc2cc(-c3ncc(F)cn3)c(F)cc2c1=O)Nc1cn[nH]c(=O)c1C(F)(F)F` [Example 108]: the EC50 is 2.9 nM. Take `[2H]C([2H])([2H])Oc1cnc(-c2cc3ncn(C[C@H](F)C[C@H](C)Nc4cn[nH]c(=O)c4C(F)(F)F)c(=O)c3cc2F)nc1` [Example 115]: the concentration for a half-maximal effect (EC50) came to 7.27 nM. As to `COC(C[C@H](C)Nc1cn[nH]c(=O)c1C(F)(F)F)Cn1ccc2cc(-c3ncc(C(F)(F)F)cn3)c(F)cc2c1=O` (stereo partly drawn) [Example 10, 7-fluoro-2-((4S)-2-methoxy-4-((6-oxo-5-(trifluoromethyl)-1,6-dihydropyridazin-4-yl)amino)pentyl)-6-(5-(trifluoromethyl)pyrimidin-2-yl)isoquinolin-1(2H)-one], the EC50 is 30.8 nM. Take `C[C@@H](C[C@@H](F)Cn1ccc2cc(-c3ncc(C(C)(C)C)cn3)c(F)cc2c1=O)Nc1cn[nH]c(=O)c1C(F)(F)F` [Example 88]: the EC50 came out at 1.29 nM. As for `C[C@@H](C[C@@H](F)Cn1ccc2cc(-c3ncc(OC(F)F)cn3)c(F)cc2c1=O)Nc1cn[nH]c(=O)c1C(F)(F)F` [Example 97], the EC50 was 0.97 nM. `C[C@@H](C[C@@H](F)Cn1ccc2cc(-c3cc[nH]n3)c(F)cc2c1=O)Nc1cn[nH]c(=O)c1C(F)(F)F` [Example 73]: the EC50 amounted to 136 nM. To `C[C@@H](C[C@@H](F)Cn1ccc2cc(-c3ncc(C(F)(F)F)cn3)c(F)cc2c1=O)Nc1cn[nH]c(=O)c1C(F)(F)F` [Example 2] belongs 0.947 nM; to `C[C@@H](C[C@H](F)Cn1ccc2cc(-c3ncc(C(F)(F)F)cn3)c(F)cc2c1=O)Nc1cn[nH]c(=O)c1C(F)(F)F` (single isomer, unassigned) [Example 3], 11.7 nM; to `C[C@@H](C[C@@H](F)Cn1ccc2cc(-c3ncc(OC(F)(F)F)cn3)c(F)cc2c1=O)Nc1cn[nH]c(=O)c1C(F)(F)F` [Example 77], 2.5 nM. With `C[C@@H](C[C@H](O)Cn1ccc2cc(-c3ncc(C(F)(F)F)cn3)c(F)cc2c1=O)Oc1cn[nH]c(=O)c1C(F)(F)F` [Example 18], the EC50 stood at 1.81 nM. For the compound `CC(C[C@H](C)Nc1cn[nH]c(=O)c1C(F)(F)F)Cn1ccc2cc(-c3ncc(C(F)(F)F)cn3)c(F)cc2c1=O` (stereo partly drawn) [Example 116, 7-fluoro-2-((4S)-2-methyl-4-((6-oxo-5-(trifluoromethyl)-1,6-dihydropyridazin-4-yl)amino)pentyl)-6-(5-(trifluoromethyl)pyrimidin-2-yl)isoquinolin-1(2H)-one], the concentration giving a half-maximal response (EC50) is 89.9 nM. Take `C[C@@H](CC(F)Cn1cnc2cc(-c3ncc(C(F)(F)F)cn3)c(F)cc2c1=O)Oc1cn[nH]c(=O)c1C(F)(F)F` (stereo partly drawn) [Example 36]: the EC50 worked out at 10.8 nM. Then `C[C@@H](C[C@@H](F)Cn1ccc2cc(-c3ncc([C@H](O)C(F)F)cn3)c(F)cc2c1=O)Nc1cn[nH]c(=O)c1C(F)(F)F` [Example 81], with 5.83 nM. Consider `COc1cnc(-c2cc3c(F)cn(C[C@@H](F)C[C@H](C)Oc4cn[nH]c(=O)c4C(F)(F)F)c(=O)c3cc2F)nc1` [Example 63], for which the EC50 worked out at 2.05 nM. Consider `O=c1[nH]ncc(N[C@@H](CO)C[C@@H](F)Cn2ccc3cc(-c4ncc(C(F)(F)F)cn4)c(F)cc3c2=O)c1C(F)(F)F` [Example 123, 7-fluoro-2-((2R,4R)-2-fluoro-5-hydroxy-4-((6-oxo-5-(trifluoromethyl)-1,6-dihydropyridazin-4-yl)amino)pentyl)-6-(5-(trifluoromethyl)pyrimidin-2-yl)isoquinolin-1(2H)-one], for which the EC50 was 16.2 nM.

Regarding `C[C@@H](C[C@@H](F)Cn1ccc2cc(-c3ncc(C(C)(C)O)cn3)c(F)c(F)c2c1=O)Nc1cn[nH]c(=O)c1C(F)(F)F` [Example 28], the EC50 was 6.51 nM. As for `C[C@@H](CC(O)Cn1ccc2cc(-c3nc4ccccn4n3)c(F)cc2c1=O)Nc1cn[nH]c(=O)c1C(F)(F)F` (stereo partly drawn) [Example 21, 6-([1,2,4]triazolo[1,5-a]pyridin-2-yl)-7-fluoro-2-((4S)-2-hydroxy-4-((6-oxo-5-(trifluoromethyl)-1,6-dihydropyridazin-4-yl)amino)pentyl)isoquinolin-1(2H)-one], the EC50 was 13.3 nM. On to `C[C@@H](C[C@@H](F)Cn1ccc2cc(-c3ncc(C4CC4)cn3)c(F)cc2c1=O)Nc1cn[nH]c(=O)c1C(F)(F)F` [Example 95], for which the EC50 is 1.36 nM.

Consider `C[C@@H](C[C@@H](F)Cn1cc(Br)c2cc(-c3ncc(C(C)(C)O)cn3)c(F)cc2c1=O)Oc1cn[nH]c(=O)c1C(F)(F)F` [Example 68, 4-bromo-7-fluoro-2-((2R,4S)-2-fluoro-4-((6-oxo-5-(trifluoromethyl)-1,6-dihydropyridazin-4-yl)oxy)pentyl)-6-(5-(2-hydroxypropan-2-yl)pyrimidin-2-yl)isoquinolin-1(2H)-one], for which the concentration for a half-maximal effect (EC50) was determined as 3.7 nM.

Values taken from patent publication US20250066328A1, “PARP7 INHIBITORS” (Gilead Sciences, Inc., priority 2023, published 2025).
